The text below walks through data of patent US9556179B2 (BRISTOL-MYERS SQUIBB COMPANY, priority 2012, dated 2017).

As usually defined, the IC50 is the point on the concentration scale where inhibition reaches its midpoint. High values mean weaker potency in that assay, low ones greater potency in that assay.

In assay [1] the target is CK1ε (Homo sapiens (Human), UniProt P49674). As to the kind of experiment: CK1ε kinase assay (Caliper LABCHIP electrophoretic separation of fluoresceinated peptide substrate and product). The format is biochemical. Conditions: 200 pM enzyme, 50 μM ATP, 22 hours at room temperature. The gist of the method:
(§1)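 Eleven-concentration compound series in kinase reactions run for 22 hours at room temperature. Terminated with EDTA, with product conversion read by electrophoretic separation. Non-linear regression gave IC50.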

The target in assay [2] is CK1δ (Homo sapiens (Human), UniProt P48730). The experiment in a line: CK1δ kinase assay (Caliper LABCHIP electrophoretic separation of fluoresceinated peptide substrate and product). The format is biochemical. Particulars: 200 pM enzyme, 50 μM ATP, 22 hours at room temperature. The gist of the method:
as §1

Sequence of CK1ε (P49674 whole entry): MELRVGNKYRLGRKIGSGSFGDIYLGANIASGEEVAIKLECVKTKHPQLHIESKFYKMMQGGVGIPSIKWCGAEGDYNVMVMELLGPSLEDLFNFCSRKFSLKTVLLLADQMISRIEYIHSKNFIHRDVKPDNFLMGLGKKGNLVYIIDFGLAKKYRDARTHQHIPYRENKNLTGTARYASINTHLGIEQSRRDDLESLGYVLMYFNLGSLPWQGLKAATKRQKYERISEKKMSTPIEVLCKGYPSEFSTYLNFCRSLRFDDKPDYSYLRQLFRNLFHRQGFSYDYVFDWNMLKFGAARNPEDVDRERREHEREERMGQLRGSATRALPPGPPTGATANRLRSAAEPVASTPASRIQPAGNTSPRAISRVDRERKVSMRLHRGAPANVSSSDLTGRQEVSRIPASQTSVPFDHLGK
Sequence of CK1δ (P48730 whole entry): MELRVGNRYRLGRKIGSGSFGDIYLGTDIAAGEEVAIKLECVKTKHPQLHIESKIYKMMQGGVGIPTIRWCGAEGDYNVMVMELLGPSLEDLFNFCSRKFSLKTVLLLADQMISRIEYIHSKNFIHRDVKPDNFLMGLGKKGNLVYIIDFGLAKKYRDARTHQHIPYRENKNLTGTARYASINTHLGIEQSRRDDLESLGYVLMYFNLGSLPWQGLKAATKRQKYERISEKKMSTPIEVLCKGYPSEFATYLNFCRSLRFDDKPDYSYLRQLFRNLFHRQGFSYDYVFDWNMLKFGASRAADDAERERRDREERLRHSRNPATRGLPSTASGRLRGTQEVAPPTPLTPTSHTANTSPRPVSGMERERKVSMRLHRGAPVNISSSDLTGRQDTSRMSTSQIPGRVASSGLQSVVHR

In the case of `CCn1c(C)nc(-c2ccc(Cl)cc2)c1-c1ccc2nc(NC(=O)c3ccnc(F)c3)cn2n1` [Compound 292, N-(6-(4-(4-chlorophenyl)-1-ethyl-2-methyl-1H-imidazol-5-yl)imidazo[1,2-b]pyridazin-2-yl)-2-fluoroisonicotinamide], the results for the IC50 in assay [1] and in assay [2] were 1.81 nM and 0.208 nM, respectively.

In the case of `O=C(Nc1cn2nc(-c3c(-c4ccc(F)cc4)ncn3C3CCOCC3)ccc2n1)c1cc(F)nc(F)c1` [Compound 433, 2,6-Difluoro-N-(6-(4-(4-fluorophenyl)-1-(tetrahydro-2H-pyran-4-yl)-1H-imidazol-5-yl)imidazo[1,2-b]pyridazin-2-yl)isonicotinamide], the IC50 in assay [1] was found to be 1.2 nM; in assay [2], 0.2 nM.

Consider `O=C(Nc1cn2nc(-c3c(-c4ccc(F)cc4)ncn3CC(F)F)ccc2n1)c1ccnc(F)c1` [Compound 237, N-(6-(1-(2,2-difluoroethyl)-4-(4-fluorophenyl)-1H-imidazol-5-yl)imidazo[1,2-b]pyridazin-2-yl)-2-fluoroisonicotinamide], for which the IC50 in assay [1] turned out to be 1.35 nM; in assay [2], 0.365 nM.

As to `O=C(Nc1cn2nc(-c3c(-c4ccc(F)cc4)nc(C4CC4)n3C3CCN(C4COC4)CC3)ccc2n1)c1ccnc(F)c1` [Compound 132, N-(6-(2-cyclopropyl-4-(4-fluorophenyl)-1-(1-(oxetan-3-yl)piperidin-4-yl)-1H-imidazol-5-yl)imidazo[1,2-b]pyridazin-2-yl)-2-fluoroisonicotinamide], the IC50 stood at 14.2 nM in assay [1] and 1.7 nM in assay [2].

For the molecule `CC1(C)CC1C(=O)N1CCn2c(nc(-c3ccc(F)cc3)c2-c2ccc3nc(NC(=O)c4ccnc(F)c4)cn3n2)C1` (stereo not drawn) [Compound 473, N-(6-(7-(2,2-Dimethylcyclopropanecarbonyl)-2-(4-fluorophenyl)-5,6,7,8-tetrahydroimidazo[1,2-a]pyrazin-3-yl)imidazo[1,2-b]pyridazin-2-yl)-2-fluoroisonicotinamide], the IC50 stood at 2.9 nM in assay [1] and 0.5 nM in assay [2].

Regarding `Cc1nc(-c2ccc(F)cc2)c(-c2ccc3nc(NC(=O)c4ccnc(F)c4)cn3n2)n1C1CCN(C[C@H](O)C(F)(F)F)CC1` [Compound 143, (S)-2-fluoro-N-(6-(4-(4-fluorophenyl)-2-methyl-1-(1-(3,3,3-trifluoro-2-hydroxypropyl)piperidin-4-yl)-1H-imidazol-5-yl)imidazo [1,2-b]pyridazin-2-yl)isonicotinamide], the concentration for half-maximal inhibition (IC50) was determined as 0.656 nM in assay [1] and 0.112 nM in assay [2].

For `O=C(Nc1cn2nc(-c3c(-c4ccc(F)cc4)ncn3C3CCN(CCO)CC3)ccc2n1)c1ccnc(F)c1` [Compound 13, 2-fluoro-N-(6-(4-(4-fluorophenyl)-1-(1-(2-hydroxyethyl)piperidin-4-yl)-1H-imidazol-5-yl)imidazo[1,2-b]pyridazin-2-yl)isonicotinamide], the figures for the IC50 in assay [1] and in assay [2] were 0.61 nM and 0.214 nM, respectively.

Regarding `O=C(Nc1cn2nc(-c3c(-c4ccc(F)cc4)nc(C4CC4)n3C3CCN(CCN4CCOCC4)CC3)ccc2n1)c1ccnc(F)c1` [Compound 134], the figures for the IC50 in assay [1] and in assay [2] were 7.83 nM and 0.542 nM, respectively.

With `CC(C)OC(=O)N1CCC(n2cnc(-c3ccc(F)cc3)c2-c2ccc3nc(NC(=O)c4ccnc(F)c4)cn3n2)CC1` [Compound 76, isopropyl 4-(5-(2-(2-fluoroisonicotinamido)imidazo[1,2-b]pyridazin-6-yl)-4-(4-fluorophenyl)-1H-imidazol-1-yl)piperidine-1-carboxylate], the IC50 in assay [1] stood at 1.8 nM; in assay [2], 0.251 nM.

Regarding `N#CCCN1CCC(n2c(C3CC3)nc(-c3ccc(F)cc3)c2-c2ccc3nc(NC(=O)c4ccnc(F)c4)cn3n2)CC1` [Compound 122, N-(6-(1-(1-(2-cyanoethyl)piperidin-4-yl)-2-cyclopropyl-4-(4-fluorophenyl)-1H-imidazol-5-yl)imidazo[1,2-b]pyridazin-2-yl)-2-fluoroisonicotinamide], the IC50 in assay [1] worked out at 2.86 nM; in assay [2] it was 0.446 nM.

Take `O=C(Nc1cn2nc(-c3c(-c4ccc(F)cc4)nc4ccccn34)ccc2n1)c1cc[nH]n1` [Compound 177, N-(6-(2-(4-fluorophenyl)imidazo[1,2-a]pyridin-3-yl)imidazo[1,2-b]pyridazin-2-yl)-1H-pyrazole-3-carboxamide]: the IC50 in assay [1] amounted to 24.2 nM; in assay [2], 6.8 nM.

Turning to `CSCCCN1CCC(n2cnc(-c3ccc(F)cc3)c2-c2ccc3nc(NC(=O)c4ccnc(F)c4)cn3n2)CC1` [Compound 26, 2-fluoro-N-(6-(4-(4-fluorophenyl)-1-(1-(3-(methylthio)propyl)piperidin-4-yl)-1H-imidazol-5-yl)imidazo[1,2-b]pyridazin-2-yl)isonicotinamide], the IC50 was determined as 2.23 nM in assay [1] and 0.449 nM in assay [2].

Regarding `O=C(Nc1cn2nc(-c3c(-c4ccc(F)cc4)ncn3Cc3cc(C4CC4)[nH]n3)ccc2n1)c1ccnc(F)c1` [Compound 270, N-(6-(1-((5-cyclopropyl-1H-pyrazol-3-yl)methyl)-4-(4-fluorophenyl)-1H-imidazol-5-yl)imidazo[1,2-b]pyridazin-2-yl)-2-fluoroiso-nicotinamide], the IC50 in assay [1] was 72.5 nM; in assay [2], 9.45 nM.

Turning to `O=C(Nc1cn2nc(-c3c(-c4ccc(F)cc4)ncn3C3CCN(Cc4ccc(F)cc4)CC3)ccc2n1)c1ccnc(F)c1` [Compound 15, 2-fluoro-N-(6-(1-(1-(4-fluorobenzyI)piperidin-4-yl)-4-(4-fluorophenyl)-1H-imidazol-5-yl)imidazo[1,2-b]pyridazin-2-yl)isonicotinamide], the IC50 stood at 14.1 nM in assay [1] and 0.215 nM in assay [2].

On to `O=C(Nc1cn2nc(-c3c(-c4ccc(F)cc4)nc4n3CCNC4)ccc2n1)c1cc(F)nc(F)c1` [Compound 457, 2,6-Difluoro-N-(6-(2-(4-fluorophenyl)-5,6,7,8-tetrahydroimidazo[1,2-a]pyrazin-3-yl)imidazo[1,2-b]pyridazin-2-yl)isonicotinamide], for which the 50% inhibitory concentration (IC50) came out at 8.5 nM in assay [1] and 0.5 nM in assay [2].

With `O=C(Nc1cn2nc(-c3c(-c4ccc(F)cc4)nc4ccccn34)ccc2n1)c1nc2ccccc2s1` [Compound 184, N-(6-(2-(4-fluorophenyl)imidazo[1,2-a]pyridin-3-yl)imidazo[1,2-b]pyridazin-2-yl)-1,3-benzothiazole-2-carboxamide], the figures for the IC50 in assay [1] and in assay [2] were 77.2 nM and 7.53 nM, respectively.

On to `O=C(Nc1cn2nc(-c3c(-c4ccc(F)cc4)ncn3C3CCN(CCC(F)(F)F)CC3)ccc2n1)c1cc(F)nc(F)c1` [Compound 92, 2,6-difluoro-N-(6-(4-(4-fluorophenyl)-1-(1-(3,3,3-trifluoropropyl)piperidin-4-yl)-1H-imidazol-5-yl)imidazo[1,2-b]pyridazin-2-yl)isonicotinamide], for which the results for the IC50 in assay [1] and in assay [2] were 7.88 nM and 1.45 nM, respectively.

Turning to `N#CCCN1CCC(n2cnc(-c3ccc(F)cc3)c2-c2ccc3nc(NC(=O)c4ccnc5ccccc45)cn3n2)CC1` [Compound 113, N-(6-(1-(1-(2-cyanoethyl)piperidin-4-yl)-4-(4-fluorophenyl)-1H-imidazol-5-yl)imidazo[1,2-b]pyridazin-2-yl)quinoline-4-carboxamide], the IC50 in assay [1] came out at 1.51 nM; in assay [2] it was 0.438 nM.
